Assay results from patent publication US20240299562A1 (priority 2020, published 2024).
Where two headings read alike, the source gives them in different places. Where a SMILES comes first, the peptide text is derived from it.

How the values were obtained:
HME-1 cells = assay: WST-1 cell viability, normal HME-1 cells; type: cell-based, human; conditions: for IC50: read-out: Absolute IC50
Description: (§1) All commercial cell lines were purchased at ATCC (LGC Standards SARL, France). Cells were seeded in 96-well plates according to their optimal seeding density, varying between 5.000 and 10.000 cells/well. After attachment overnight, 10-point serial titrations (1:5) were prepared in their equivalent complete media as recommended by ATCC, starting from the 10 mM stock solutions. For doxorubicin comprising prodrugs dilutions started from 100 μM, while for the parent compound doxorubicin dilutions started at 10 μM. […] Seventy-two hours later, compounds were removed together with the supernatants and cells were washed once with PBS to remove excess drugs.
(§2) The WST-1 assay for cell proliferation and viability (Roche, Switzerland) was performed according to manufacturer's protocol. Absorbances were measured at 4 hrs using a Perkin Elmer Ensight multiplate reader, equipped with Kaleido 2.0 software (Perkin Elmer, USA). Cell viability was expressed as a percentage compared to non-treated cells. Absolute IC50 values were extrapolated from a non-linear fitting following the Sigmoidal-4PL regression method using Graphpad Prism 7.0. Likewise, maximal efficacy was determined as 100% minus the cell viability determined when cells are incubated in the presence of a compound. For instance, if 20% of the cells survive incubation in the presence of a compound, then the maximal efficacy of that compound is 100%-20%=80%.
(§3) Selectivity indices (SI) were defined as the ratio of the concentration of drug required to kill 50% of the cells in normal (control, non-cancer) cells, divided by the concentration required to exert the same efficacy in tumor cells: SI=IC50 (control cell)/IC50 (cancer cell), or SI=^HME-1IC50/cancer IC50.

MIA PaCa-2 cells = assay: WST-1 cell viability, MIA PaCa-2 pancreatic cancer cells; type: cell-based
Description: as §1, §2, §3

A-172 cells = assay: WST-1 cell viability, A-172 glioblastoma cells; type: cell-based; conditions: for IC50: read-out: Absolute IC50
Description: as §1, §2, §3

U-87 MG cells = assay: WST-1 cell viability, U-87 MG glioblastoma cells; type: cell-based; conditions: for IC50: read-out: Absolute IC50
Description: as §1, §2, §3

MDA-MB-231 cells = assay: WST-1 cell viability, MDA-MB-231 triple negative breast cancer cells; type: cell-based; conditions: for IC50: read-out: Absolute IC50
Description: as §1, §2, §3

MDA-MB-468 cells = assay: WST-1 cell viability, MDA-MB-468 triple negative breast cancer cells; type: cell-based
Description: as §1, §2, §3

A2058 cells = assay: WST-1 cell viability, A2058 melanoma cells; type: cell-based; conditions: for IC50: read-out: Absolute IC50
Description: as §1, §2, §3

NCI-1299 cells = assay: WST-1 cell viability, NCI-H1299 lung cancer cells; type: cell-based
Description: as §1, §2, §3

NCI-H292 cells = assay: WST-1 cell viability, NCI-H292 lung cancer cells; type: cell-based
Description: as §1, §2, §3

[1] = tested on: hiPSC-derived astrocytes (iAstro); assay: WST-1 cell viability, hiPSC-derived astrocytes (iAstro); type: cell-based, human; conditions: iAstro normal astrocytes, 72 hrs
Description: as §1, §2, §3
hiPSC-derived astrocytes were purchased from Tempo Biosciences (iAstro™). Prior to use, six-well plates were coated with 1 ml GFR Matrigel (1:100˜0.1 mg/ml, Corning #356231) and allowed to polymerize at 37° C. overnight. Three days before assaying, cells were defrosted and seeded onto the GFR Matrigel in iAstro medium, and allowed to recover from defrosting for 48 hrs. The recovery was aided using RevitaCell™ Supplement during the first 24 hrs. After morphological inspection, cells were transferred to 96-well plates and 4-well microscopy vessels (Millipore), coated with Poly-L-lysine (50 μg/ml, P2533, Sigma Aldrich) and mouse laminin (4 ng/ml, L2020, Sigma Aldrich), using StemPro Accutase reagent (Invitrogen). Following overnight recovery, iAstro's were exposed to the same treatment protocol described above.

[2] = tested on: U87 MG glioblastoma cells subcutaneously implanted in nude NMRI mice; assay: In vivo activity of PhAc-ALLP-Dox on U87 MG glioblastoma xenograft; set-up: species or system mouse; conditions: 30 mg/kg iv, once per week, four administrations
Description: The in vivo efficacy of PhAc-ALLP-Dox was tested in a mouse GBM model. U87 MG glioblastoma cells were subcutaneously (SC) implanted in nude NMRI mice. In total, 32 adult (9-10 weeks old) nude female NMRI mice (Janvier, France) were subjected to SC tumor cell grafting in the right flank. In total, 5×10^6 U87 MG cells resuspended in PBS plus Matrigel (1:1) were injected in 200 uL final volume. As soon as the tumors were palpable and reached the volume of 200 mm3 the treatment was started. At day zero, mice were randomly divided into 4 groups, based on the tumor volume, in order to have the following experimental sub-cohorts: • control group receiving the vehicle (PBS pH7.2) with a dose of 5 ml/kg, intravenously (iv), once per week (QW); • PhAc-ALLP-Dox (30 mg/kg iv, QW); • PhAc-ALGP-Dox (154 mg/kg iv, QW); • Dox (5 mg/kg iv, QW).
Treatments were performed once per week for a total of four tail vein administrations/injections (on days 1, 7, 14 and 21). One extra week of observation followed the active treatment phase. During the experiment, tumor volume was measured two times a week and was assessed three-dimensionally with a digital caliper (Mitutoyo, Illinois) using the following formula:
V=4/3π×[(d/2)^2×(D/2)], where d is the minor tumor axis and D is the major tumor axis.

Structure (SMILES): COc1cccc2c1C(=O)c1c(O)c3c(c(O)c1C2=O)C[C@@](O)(C(=O)CO)C[C@@H]3O[C@H]1C[C@H](NC(=O)[C@@H]2CCCN2C(=O)[C@H](CC(C)C)NC(=O)[C@H](CC(C)C)NC(=O)[C@H](C)NC(=O)CP(=O)(O)O)[C@H](O)[C@H](C)O1 [PhAc-ALLP-Dox, PhAc-ALLP-Doxorubicin] (HELM PEPTIDE1{[O=C(CP(=O)(O)O)[*:2]].A.L.L.P.[COc1cccc2c1C(=O)c1c(O)c3c(c(O)c1C2=O)C[C@@](O)(C(=O)CO)C[C@@H]3O[C@H]1C[C@H](N[*:1])[C@H](O)[C@H](C)O1]}$$$$V2.0)
- SI = HME-1 IC50/cancer IC50 (HME-1 cells; HME-1 normal cells against themselves (Table 3)): 1.00
- IC50 (HME-1 cells; HME-1 normal cells, 72 hrs continuous drug exposure, WST-1 (Table 1)): 36900 nM
- IC50 (HME-1 cells; HME-1 normal cells, 72 hrs, WST-1 (Table 4)): 36900 nM
- Maximal efficacy (HME-1 cells; HME-1 normal cells, 72 hrs, WST-1, cytotoxicity at highest concentration (Table 5)): 59.5%
- SI = HME-1 IC50/cancer IC50 (MIA PaCa-2 cells; MIA PaCa-2 (PaC) vs HME-1 (Table 3)): 0.79
- IC50 (MIA PaCa-2 cells; MIA PaCa-2 (PaC), 72 hrs, WST-1 (Table 1), read-out: Absolute IC50): 46800 nM
- Maximal efficacy, cytotoxicity (%) at 100 μM (MIA PaCa-2 cells; MIA PaCa-2 (PaC), 72 hrs, WST-1 (Table 2)): 65.41%
- SI = HME-1 IC50/cancer IC50 (A-172 cells; A-172 (GBM) vs HME-1 (Table 3)): 30.54
- SI = HUVEC IC50 / cancer IC50 (A-172 cells; A-172 (GBM), * towards HUVEC cells (Table 6)): *34.4
- SI = iAstro IC50 / cancer IC50 (A-172 cells; A-172 (GBM), ** towards hiPSCs (iAstro) (Table 6)): **15.8
- SI = normal IC50 / cancer IC50 (A-172 cells; A-172 (GBM), selectivity towards HME-1 cells (Table 6)): 30.5
- IC50 (A-172 cells; A-172 (GBM), 72 hrs, WST-1 (Table 1)): 1210 nM
- Maximal efficacy, cytotoxicity (%) at 100 μM (A-172 cells; A-172 (GBM), 72 hrs, WST-1 (Table 2)): 98.08%
- IC50 (A-172 cells; A-172 (GBM), 72 hrs, WST-1 (Table 4)): 1290 nM
- Maximal efficacy (A-172 cells; A-172 (GBM), 72 hrs, WST-1 (Table 5)): 80.9%
- Selectivity index towards hiPSC-derived astrocytes, GBM (A-172 cells; GBM indication as a whole (A-172 and U-87 MG), vs iAstro): 14.9±0.8
- SI = HME-1 IC50/cancer IC50 (U-87 MG cells; U-87 MG (GBM) vs HME-1 (Table 3)): 128.53
- SI = HUVEC IC50 / cancer IC50 (U-87 MG cells; U-87 MG (GBM), * towards HUVEC cells (Table 6)): *144.9
- SI = iAstro IC50 / cancer IC50 (U-87 MG cells; U-87 MG (GBM), ** towards hiPSCs (iAstro) (Table 6)): **14.1
- SI = normal IC50 / cancer IC50 (U-87 MG cells; U-87 MG (GBM), selectivity towards HME-1 cells (Table 6)): 128.5
- IC50 (U-87 MG cells; U-87 MG (GBM), 72 hrs, WST-1 (Table 1)): 290 nM
- Maximal efficacy, cytotoxicity (%) at 100 μM (U-87 MG cells; U-87 MG (GBM), 72 hrs, WST-1 (Table 2)): 94.35%
- IC50 (U-87 MG cells; U-87 MG (GBM), 72 hrs, WST-1 (Table 4)): 1440 nM
- Maximal efficacy (U-87 MG cells; U-87 MG (GBM), 72 hrs, WST-1 (Table 5)): 97.1%
- SI = HME-1 IC50/cancer IC50 (MDA-MB-231 cells; MDA-MB-231 (TNBC) vs HME-1 (Table 3)): 3.85
- SI = HUVEC IC50 / cancer IC50 (MDA-MB-231 cells; MDA-MB-231 (TNBC), * towards HUVEC cells (Table 6)): *23.6
- SI = normal IC50 / cancer IC50 (MDA-MB-231 cells; MDA-MB-231 (TNBC), selectivity towards HME-1 cells (Table 6)): 20.9
- IC50 (MDA-MB-231 cells; MDA-MB-231 (TNBC), 72 hrs, WST-1 (Table 1)): 9570 nM
- Maximal efficacy, cytotoxicity (%) at 100 μM (MDA-MB-231 cells; MDA-MB-231 (TNBC), 72 hrs, WST-1 (Table 2)): 71.20%
- IC50 (MDA-MB-231 cells; MDA-MB-231 (TNBC), 72 hrs, WST-1 (Table 4)): 9570 nM
- Maximal efficacy (MDA-MB-231 cells; MDA-MB-231 (TNBC), 72 hrs, WST-1 (Table 5)): 71.2%
- SI = HME-1 IC50/cancer IC50 (MDA-MB-468 cells; MDA-MB-468 (TNBC) vs HME-1 (Table 3)): 20.94
- IC50 (MDA-MB-468 cells; MDA-MB-468 (TNBC), 72 hrs, WST-1 (Table 1), read-out: Absolute IC50): 1760 nM
- Maximal efficacy, cytotoxicity (%) at 100 μM (MDA-MB-468 cells; MDA-MB-468 (TNBC), 72 hrs, WST-1 (Table 2)): 87.18%
- SI = HME-1 IC50/cancer IC50 (A2058 cells; A2058 (Melanoma) vs HME-1 (Table 3)): 298.19
- SI = HUVEC IC50 / cancer IC50 (A2058 cells; A2058 (Melanoma), * towards HUVEC cells (Table 6)): *336.1
- SI = normal IC50 / cancer IC50 (A2058 cells; A2058 (Melanoma), selectivity towards HME-1 cells (Table 6)): 298.2
- IC50 (A2058 cells; A2058 (Melanoma), 72 hrs, WST-1 (Table 1)): 120 nM
- Maximal efficacy, cytotoxicity (%) at 100 μM (A2058 cells; A2058 (Melanoma), 72 hrs, WST-1 (Table 2)): 97.56%
- IC50 (A2058 cells; A2058 (Melanoma), 72 hrs, WST-1 (Table 4)): 120 nM
- Maximal efficacy (A2058 cells; A2058 (Melanoma), 72 hrs, WST-1 (Table 5)): 97.6%
- SI = HME-1 IC50/cancer IC50 (NCI-1299 cells; NCI-1299 (NSCLC) vs HME-1 (Table 3)): 27.39
- IC50 (NCI-1299 cells; NCI-1299 (NSCLC), 72 hrs, WST-1 (Table 1), read-out: Absolute IC50): 1350 nM
- Maximal efficacy, cytotoxicity (%) at 100 μM (NCI-1299 cells; NCI-1299 (NSCLC), 72 hrs, WST-1 (Table 2)): 70.15%
- SI = HME-1 IC50/cancer IC50 (NCI-H292 cells; NCI-H292 (NSCLC) vs HME-1 (Table 3)): 6.30
- IC50 (NCI-H292 cells; NCI-H292 (NSCLC), 72 hrs, WST-1 (Table 1), read-out: Absolute IC50): 5860 nM
- Maximal efficacy, cytotoxicity (%) at 100 μM (NCI-H292 cells; NCI-H292 (NSCLC), 72 hrs, WST-1 (Table 2)): 55.15%
- IC50 ([1]; WST-1 (Table 4), read-out: Absolute IC50): 20300 nM
- Maximal efficacy ([1]; WST-1 (Table 5)): 68.5%
- Tumor volume compared to the untreated control group [2]: importantly reduced the tumor volume
